# Measurements published in US9555040B2, “Methods of treating proliferative diseases” (Ambit Biosciences Corporation, priority 2009, dated 2017).
# Tests used:
# [1] = test system: pSTAT5; assay: Pharmacodynamics: pSTAT5 in patient samples; format: in vivo, human; settings: subset of 17 patients, very preliminary
# Source text: STATS is a downstream signaling pathway activated by FLT3 following binding of FLT3 ligand leading to receptor dimerization, increased kinase activity and activation of downstream signaling pathways including STATS.
# [2] = test system: relapsed or refractory acute myeloid leukemia; assay: Phase I clinical trial: efficacy, responses per modified Cheson criteria; format: in vivo, human
# Protocol: The study was open labeled and designed to determine the safety, tolerability, dose limiting toxicity (DLT), pharmacokinetics and pharmacodynamics of escalating doses.
# The study included adult patients with relapsed or refractory AML, or unsuitable for induction chemotherapy.
# Patients with clinical benefit were allowed to continue for additional cycles at the discretion of the investigator. The protocol was subsequently amended to allow for continuous dosing of the compound starting at 200 mg on Day 1.
# Preliminary response data was evaluated in all 76 patients treated with the compound.
# Responses were defined per modified Cheson criteria.
# [3] = Phase I clinical trial: plasma pharmacokinetics; format: in vivo, human
# Protocol: In addition, plasma samples were collected on day 15 (˜24 hrs post final dose) to evaluate steady-state trough levels. Bioanalysis of the compound was initially conducted at Consolidated Laboratory Services (CLS), Van Nuys, Calif. […] The coefficient of variation (CV %) for AUCO-24 at steady-state is modest at the lowest dose of 12 mg (33%) and high for the 450 mg cohort (82%). While the variability tended to be higher at higher doses, there was not a clear relationship between variability and either dose or […].
# This analysis was conducted at MicroConstants, San Diego, Calif.
# [4] = Phase I clinical trial: safety, tolerability, dose limiting toxicity; format: in vivo, human
# Source text: This study was the first human clinical trial of the compound of Formula I or a pharmaceutically acceptable salt or solvate thereof in humans having relapsed or refractory acute myeloid leukemia. The study was open labeled and designed to determine the safety, tolerability, dose limiting toxicity (DLT), pharmacokinetics and pharmacodynamics of escalating doses.
# The study included adult patients with relapsed or refractory AML, or unsuitable for induction chemotherapy. Demographics and baseline characteristics were as follows: median age was 60 years, with a range of 23-86 years. Sixty percent of the patients were male. […] Eleven (15%) patients had prior allogeneic hematopoietic stem cell transplant (HSCT) and 13 (17%) patients had secondary AML with antecedent MDS or MDS/MPD. A total of 20 patients had FLT3 mutations (17 ITD and 3 D835), 43 were wild-type, and 13 were undetermined.
# Patients with clinical benefit were allowed to continue for additional cycles at the discretion of the investigator. The protocol was subsequently amended to allow for continuous dosing of the compound starting at 200 mg on Day 1. In addition to patients included in the 200 mg (17 patients) and 300 mg (8 patients) continuous dosing cohort, there were at least 8 patients who, at the investigators discretion and per protocol, received continuous dosing after cycle 1 of intermittent dosing ranging from 19-187 days.
# In addition, the safety profile was similar between patients receiving continuous dosing and those on the intermittent schedule. These included general disorders (e.g., pyrexia and fatigue), gastrointestinal disorders (e.g., nausea, diarrhea and vomiting) and hematologic disorders (eg, anemia, neutropenia and thrombocytopenia).
# Out of the 76 patients treated with the compound in this study, 38 patients (50%) reported a total of 94 serious adverse events (SAEs) (defined as CTC Grade 3 or greater). The majority of the SAEs were considered by the investigator to be not related to study treatment. Only 6 patients (7.9%) reported SAEs that were initially considered to be related to treatment with the compound. These included one patient with lung infection, one patient with vomiting and one patient with nausea, anorexia, and upper abdominal pain. The investigator subsequently revised the event of anorexia for the patient to non-serious. In addition, three patients were noted by the site investigators using local ECG analysis to have reported Grade 3 QTc prolongation of >500 ms which was considered to be a dose-limiting toxicity for the study according to the protocol.
# Based on the site reported dose-limiting toxicity of Grade 3 QTc prolongation, a detailed evaluation of the cardiac safety of the compound was conducted. As defined in the protocol, a single 12-lead electrocardiogram (ECG) had been performed using standardized equipment at the site at Visits 1 (screen), 2 (Baseline—at Hours 0, 2, and 4), 4 (Day 8 at Hours 0 and 4), and depending on the version of the protocol active at the time of assessment for each patient, 6 (Day 14 or 15), 7 (Day 21 or 22), 8 (Day 28 or 29), 9 (Day 36), 10 (Day 43), 11 (Day 50), 12 (Day 57) and at the end of the study or early termination. ECG assessments and interpretations initially were performed by the site's cardiologist or other qualified site personnel. To improve upon the accuracy of these locally-analyzed data, a central digitized blinded analysis of all ECGs collected to date was undertaken by a core ECG laboratory (EResearchTechnology in Philadelphia, Pa.). Due to some issues with readability, 72 patients (out of 76 patients enrolled in the study) were included in this analysis. […] The phase I study was not designed to define the ECG effects of the compound, which will be more closely monitored in the phase II study.
# [5] = Animal toxicology studies; format: in vivo
# [6] = FLT3-ITD patients, 200 mg continuous dosing (n=5)
# [7] = patients with FLT3-ITD mutation (n=17)
smiles,measurement,setting,value
"CC(C)(C)c1cc(NC(=O)Nc2ccc(-c3cn4c(n3)sc3cc(OCCN5CCOCC5)ccc34)cc2)no1 [compound of formula I, N-(5-tert-butyl-isoxazol-3-yl)-N′-{4-[7-(2-morpholin-4-yl-ethoxy)imidazo[2,1-b][1,3]benzothiazol-2-yl]phenyl}urea]",effect on pSTAT5,[1],dose-dependent effect is consistent with that observed with pFLT3
same,bone marrow responses within the first 29 days of treatment (Cycle 1),[2]; 15/22 responders,68%
same,CR,[2]; [6],1 patients
same,CRi,[2]; [6],1 patients
same,CRp,[2]; [6],1 patients
same,PR,[2]; [6],2 patients
same,overall response rate (CR+CRp+CRi+PR),"[2]; FLT3-ITD patients, 200 mg continuous dosing, 5/5",100%
same,CR with complete hematologic recovery,[2]; all 76 patients,2 patients
same,CR with incomplete platelet and neutrophil recovery (CRi),[2]; all 76 patients,4 patients
same,CR with incomplete platelet recovery (CRp),[2]; all 76 patients,4 patients
same,"patients achieving complete remission (CR, all types)",[2]; all 76 patients,Ten
same,patients with partial remission (PR),[2]; all 76 patients,Fourteen
same,peripheral blast reduction (>25% at baseline with >50% decrease post-treatment to 0-25%),[2]; all patients,most patients had a peripheral blast reduction
same,overall response (CR+PR),"[2]; all patients, 12 mg-450 mg, 24/76",32%
same,patients reporting a response after Cycle 2,[2]; of the remaining 7 responders,3 patients
same,patients reporting a response within 57 days (Cycle 2),[2]; of the remaining 7 responders,4 patients
same,CR,[2]; [7],1 patients
same,CRi,[2]; [7],3 patients
same,CRp,[2]; [7],1 patients
same,PR,[2]; [7],6 patients
same,overall response rate,"[2]; patients with FLT3-ITD mutation, 11/17",65%
same,median duration of remission,"[2]; range, 4 to 61+ weeks",14.1 weeks
same,dose dependence of steady-state plasma exposure (AUC),"[3]; human, in vivo",increased in a dose proportional manner
same,peak and trough variation of plasma levels,"[3]; human, in vivo",minimal peak and trough variation
same,time to steady-state plasma exposure,"[3]; human, in vivo",≤ 8 days
same,coefficient of variation (CV %) for AUC0-24 at steady-state,"[3]; human, in vivo, 12 mg",33%
same,coefficient of variation (CV %) for AUC0-24 at steady-state,"[3]; human, in vivo, 450 mg",82%
same,half-life,"[3]; human, in vivo, effective half-life",~36 h
same,oral bioavailability,"[3]; human, in vivo, po",orally bioavailable
same,half-life,"[3]; human, in vivo, terminal T1/2",31.2 h
same,30-day treatment-related mortality,"[4]; 76 patients, to date",no 30-day treatment-related mortality
same,patients who died during the study,"[4]; all deaths disease or comorbidity associated, not treatment related",12 patients
same,grade of the majority of treatment-related adverse events,"[4]; both, human, in vivo",CTC Grade 1 and 2
same,patients reporting SAEs initially considered related to treatment,"[4]; both, human, in vivo",7.9%
same,patients reporting serious adverse events (CTC Grade 3 or greater),"[4]; both, human, in vivo",50%
same,total number of serious adverse events reported,"[4]; both, human, in vivo",94
same,"liver or kidney abnormalities as drug-related serious adverse events (BUN, creatinine, ALT, AST, ALP, bilirubin)","[4]; human, in vivo",no liver or kidney abnormalities
same,patients with Grade 3 QTc prolongation of >500 ms (dose-limiting toxicity),"[4]; human, in vivo",three
same,target organ toxicity,[5],Bone marrow hypocellularity
CC(C)(CO)c1cc(NC(=O)Nc2ccc(-c3cn4c(n3)sc3cc(OCCN5CCOCC5)ccc34)cc2)no1 [compound of formula II],average steady state plasma ratio of formula II/I,"[3]; human plasma, n=60",0.4
same,"plasma ratio of compounds of formula II/I, highest in one patient","[3]; human plasma, n=60",≤ 3.14
same,steady-state plasma level,[3]; patients dosed at 200 mg of the compound of formula I,~300 ng/mL
